Measurements published in US20090232762A1, “COMPOSITIONS FOR DELIVERY OF THERAPEUTIC AGENTS” (priority 2008, published 2009).
Like-named read-outs stand apart in the source and are kept apart here.

Tests used:
yCD = biological target: T1, yCD (Saccharomyces cerevisiae, UniProt Q12178); assay: Enzyme activity of yCD (His tag cleaved); format: biochemical, S. cerevisiae
T1 construct: The resulting 474 bp gene was subcloned into pET-15b; histidine tag (pET-15b) (N, cleaved yes); made in house; host or cells: E. coli BL21(DE3)
T1 sequence (Q12178 whole entry): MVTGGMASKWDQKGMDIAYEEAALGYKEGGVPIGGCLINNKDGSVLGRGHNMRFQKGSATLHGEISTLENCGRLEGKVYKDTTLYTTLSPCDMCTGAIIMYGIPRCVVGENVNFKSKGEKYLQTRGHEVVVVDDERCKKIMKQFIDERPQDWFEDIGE
Experimental: (§1) The S. cerevisiae yeast cytosine deaminase (yCD) enzyme was cloned and expressed. The resulting 474 bp gene was subcloned into pET-15b to facilitate purification of the protein via a fused histidine tag and transformed into competent BL21(DE3) cells for protein expression. An estimate of about 25-30 mg of pure yCD-His was collected from a 1-liter culture. Thrombin cleavage of the histidine tag on yCD-His was achieved by incubating the protein for 2 hours at 23° C. in thrombin cleavage buffer. Enzyme activity characteristics for yCD and yCD-His was investigated using both the prodrug 5FC and the enzyme's natural substrate, the DNA base cytosine. Five-FC turnover rates remained within 10^5 M^−1·s^−1 (Table 1) for both proteins (see E. Kievit et al. Cancer Res. 2000, 60:6649-6655). The diffusion controlled limit for extremely efficient enzymes and their substrates in solution is in the range 10^8-10^9 M^−1·s^−1, therefore it was concluded that yCD was a very efficient pretargeting enzyme for catalyzing 5FC to 5FU conversion, especially applicable to GDEPT.

yCD-His = biological target: T2, yCD-His (Saccharomyces cerevisiae, UniProt Q12178); assay: Enzyme activity of yCD-His (substrate turnover); format: biochemical, S. cerevisiae
T2 construct: The resulting 474 bp gene was subcloned into pET-15b; made in house; host or cells: E. coli BL21(DE3)
T2 sequence (Q12178 whole entry): as above
Experimental: as §1

[1] = cited from earlier work; for LogP (Drug): drug named
MDA-MB-231 [2] = settings: reported on the National Cancer Institute website; cited from earlier work
MDA-MB-231 [3] = assay: 5FU toxicity in MDA-MB-231 (drug concentration vs. % cell death, Hill-Slope fit); format: cell-based; settings: Homo sapiens; MDA-MB-231, % cell death, Hill-Slope curve fit

SMILES	kcat (yCD)	kcat (yCD-His)	LogP (Drug) [1]	also measured
Nc1nc(=O)[nH]cc1F [5-FC, 5-fluorocytosine]	448 s⁻¹	315 s⁻¹	–	LogP (Prodrug) ([1]; prodrug column): −1.79
O=c1[nH]cc(F)c(=O)[nH]1 [5-FU, 5-fluorouracil]	–	–	−2.17	IC50 (MDA-MB-231 [2]): 900 nM; IC50 (MDA-MB-231 [3]): 2900 nM
Nc1cc[nH]c(=O)n1 [Cytosine, cytosine]	741 s⁻¹	607 s⁻¹	–	–
COc1cccc2c1C(=O)c1c(O)c3c(c(O)c1C2=O)C[C@@](O)(C(=O)CO)C[C@@H]3O[C@H]1C[C@H](N)[C@H](O)[C@H](C)O1 [DOX, doxorubicin]	–	–	+0.36	–
CCc1c2c(nc3ccc(O)cc13)-c1cc3c(c(=O)n1C2)COC(=O)[C@]3(O)CC [SN-38, 7-ethyl-10-hydroxycamptothecin]	–	–	+2.02	–
